The values below come from ChEMBL document CHEMBL1201862, “PubChem BioAssay data set” (2004).

A short description of test [1]: A549 lung cell cytotoxicity, dose response, cytotoxicity control, CellTiter-Glo luminescence, dry powder samples (AID 720585). It is filed as functional. (In ATP-based viability assays light output follows the ATP content of the culture.)
A short description of test [2]: HEK293 cell cytotoxicity, dose response, cytotoxicity control, cherry-picks, set 5 (AID 1053117). It is filed as functional, cell-based.
Test [3] is described as follows: inhibitors of fibronectin matrix deposition, dose response, AH1F cells, Alexa488-FN fluorescence, cherry-picks (AID 1035475). The test is classed as functional, cell-based.
Test [4] is described as follows: HepG2 cell cytotoxicity, dose response, cytotoxicity control, cherry-picks, set 5 (AID 1053118). The test is classed as functional, cell-based.
Test [5] has as its target Metabotropic glutamate receptor 5 (Rattus norvegicus, UniProt P31424). Description: Identification of a glycine sulfonamide based non-MPEP site positive allosteric potentiator (PAM) of mGlu5 (calcium_assay). It is filed as functional.
Test [6] can be described thus: HEK293T cell cytotoxicity, dose response, cytotoxicity control, luminescence plate reader, powder samples, set 4 (AID 651863). It is filed as functional, cell-based. Particulars: HEK293.
Test [7] in a line: cytotoxicity in HepG2 cells, dose response, cytotoxicity control, cell-based, plate reader, dry powder (AID 651947). It is filed as functional.
Test [8] can be described thus: inhibitors of non-replicating M. tuberculosis, dose response, luciferase, dry powder (AID 651619). The test is classed as functional. The note with it: Mycobacterium tuberculosis.
A short description of test [9]: inhibitors of non-replicating M. tuberculosis, dose response, luciferase, dry powder (AID 651620). It is filed as functional. Particulars: Mycobacterium tuberculosis.
The nature of test [10]: growth inhibition of replicating M. tuberculosis, dose response, counter-screen, dry powder, IC90 (AID 651617). The test is classed as functional. The note with it: Mycobacterium tuberculosis. Background: Counterscreens check selectivity or assay interference.
Test [11] in a line: HEK293T cell cytotoxicity, dose response, cytotoxicity control, CellTiter-Glo luminescence, dry powder, set 6 (AID 651949). The test is classed as functional, cell-based. The note with it: HEK293.
The target in test [12] is Delta-type opioid receptor (Homo sapiens, UniProt P41143). The test is described as follows: Late-stage results from the probe development effort to identify antagonists of OPRK1: fluorescence-based cell-based dose response OPRD1 counterscreen. It is filed as functional.
Delta-type opioid receptor, sequence (P41143 whole entry): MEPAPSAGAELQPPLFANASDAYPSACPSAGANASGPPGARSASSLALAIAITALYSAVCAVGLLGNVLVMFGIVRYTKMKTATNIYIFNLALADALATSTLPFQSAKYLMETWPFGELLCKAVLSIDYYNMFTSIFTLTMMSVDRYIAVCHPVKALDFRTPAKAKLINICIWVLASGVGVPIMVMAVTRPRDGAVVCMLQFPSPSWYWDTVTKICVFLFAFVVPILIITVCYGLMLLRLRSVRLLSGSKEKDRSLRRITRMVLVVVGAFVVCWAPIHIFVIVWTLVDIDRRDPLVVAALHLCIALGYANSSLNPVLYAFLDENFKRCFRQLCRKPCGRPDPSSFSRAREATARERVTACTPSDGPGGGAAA
Test [13] deals with Mu-type opioid receptor (Homo sapiens, UniProt P35372). Description: Late-stage results from the probe development effort to identify antagonists of OPRK1: luminescence-based cell-based dose response OPRM1 counterscreen. The test is classed as functional.
Mu-type opioid receptor, sequence (P35372 whole entry): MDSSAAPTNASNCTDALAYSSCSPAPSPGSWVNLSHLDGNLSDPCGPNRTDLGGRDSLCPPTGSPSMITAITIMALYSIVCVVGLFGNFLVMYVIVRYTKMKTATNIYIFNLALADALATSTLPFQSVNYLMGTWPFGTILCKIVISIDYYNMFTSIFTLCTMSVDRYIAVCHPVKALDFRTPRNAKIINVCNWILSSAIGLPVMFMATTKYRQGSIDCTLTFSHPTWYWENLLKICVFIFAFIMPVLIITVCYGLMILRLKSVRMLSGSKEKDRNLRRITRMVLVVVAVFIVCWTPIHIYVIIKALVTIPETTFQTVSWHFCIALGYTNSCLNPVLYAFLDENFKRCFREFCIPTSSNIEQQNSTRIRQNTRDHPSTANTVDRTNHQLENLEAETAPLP
Test [14] in a line: Late stage assay provider results from the probe development effort to identify selective inhibitors of heat shock protein 90 (HSP90): Absorbance-based cell proliferation assay in SKBR3 cells. The test is classed as functional. Particulars: SK-BR-3.
Test [15] in a line: Late stage assay provider results from the probe development effort to identify selective inhibitors of heat shock protein 90 (HSP90): Absorbance-based cell proliferation assay in MCF7 cells. It is filed as functional.
A short description of test [16]: A Cell-Based Confirmatory Screen for Compounds that Inhibit VEEV, TC-83 (8). It is filed as functional.

Molecules are shown by their SMILES. Active and inactive are the calls of the source. Unless noted, the calls are words filed in the database; no cut-off is given here.

Metabotropic glutamate receptor 5, sequence (P31424 whole entry): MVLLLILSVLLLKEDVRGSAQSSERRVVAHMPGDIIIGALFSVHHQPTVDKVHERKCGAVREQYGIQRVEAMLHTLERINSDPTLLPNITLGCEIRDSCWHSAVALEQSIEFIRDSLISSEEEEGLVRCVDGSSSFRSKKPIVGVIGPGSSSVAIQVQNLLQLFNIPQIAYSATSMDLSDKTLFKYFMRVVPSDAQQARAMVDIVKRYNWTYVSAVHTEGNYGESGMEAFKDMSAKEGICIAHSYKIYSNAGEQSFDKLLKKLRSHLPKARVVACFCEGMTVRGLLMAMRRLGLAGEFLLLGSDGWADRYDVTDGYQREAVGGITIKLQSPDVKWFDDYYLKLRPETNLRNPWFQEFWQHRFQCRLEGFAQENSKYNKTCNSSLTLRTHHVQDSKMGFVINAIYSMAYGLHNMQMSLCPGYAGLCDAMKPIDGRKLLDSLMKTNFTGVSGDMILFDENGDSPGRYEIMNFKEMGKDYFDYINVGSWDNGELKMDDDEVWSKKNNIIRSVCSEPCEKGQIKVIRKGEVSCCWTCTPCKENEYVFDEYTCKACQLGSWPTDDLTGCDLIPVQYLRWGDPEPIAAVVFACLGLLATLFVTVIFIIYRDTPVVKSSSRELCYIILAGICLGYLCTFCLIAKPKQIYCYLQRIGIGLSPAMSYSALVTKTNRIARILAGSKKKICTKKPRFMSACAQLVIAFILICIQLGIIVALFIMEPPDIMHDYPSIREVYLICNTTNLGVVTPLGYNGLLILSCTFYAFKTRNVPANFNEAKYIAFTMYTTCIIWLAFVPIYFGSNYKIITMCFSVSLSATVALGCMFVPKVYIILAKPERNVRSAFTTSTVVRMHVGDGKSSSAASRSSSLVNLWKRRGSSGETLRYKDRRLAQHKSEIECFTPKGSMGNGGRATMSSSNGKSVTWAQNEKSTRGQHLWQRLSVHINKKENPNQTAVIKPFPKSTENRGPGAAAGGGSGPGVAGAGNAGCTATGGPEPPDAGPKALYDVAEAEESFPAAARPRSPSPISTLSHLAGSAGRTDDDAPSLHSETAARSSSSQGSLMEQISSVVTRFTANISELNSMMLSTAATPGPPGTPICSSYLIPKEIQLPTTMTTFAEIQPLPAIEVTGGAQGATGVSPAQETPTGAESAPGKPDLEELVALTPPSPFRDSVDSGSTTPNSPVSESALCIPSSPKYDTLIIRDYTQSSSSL

The molecule `Cc1ccc(/C=C(\CCCC(=O)O)c2nc3ccccc3s2)cc1[N+](=O)[O-]` returned an AbsAC50_uM in test [1] of 140.77 µM.

In general, AC50 refers to the concentration giving half of the maximal activity seen. As to `O=S(=O)(c1cccc(F)c1)N1CC[C@@H]2[C@@H](CO)Nc3ccc(-c4cccc(F)c4)cc3[C@@H]21`, the AC50 was 22.6 µM (active) in test [2], 6.54 µM (active) in [3] and 27.3 µM (active) in test [4].

For orientation: EC50 means the concentration needed to bring the measured effect to its halfway point. For `CS(=O)(=O)N(CC(=O)Nc1ccc(F)cc1F)c1cc(C(F)(F)F)ccc1Cl`, in test [5], the concentration giving a half-maximal response (EC50) was 2.41 µM.

Consider `O=C(NC[C@@H]1c2ccccc2CCN1C(=O)[C@@H]1CCCC[C@@H]1C(=O)O)OCC1c2ccccc2-c2ccccc21`, for which the concentration at half-maximal activity (AC50) in [6] was 46.3 µM (active).

As to `Cc1ccccc1CSc1nnc(-c2ccccc2)o1`, the half-maximal activity concentration (AC50) in test [7] was 0.308 µM (active).

Broadly, the IC90 is the concentration at which the effect reaches the 90% level. On to `c1ccc(-n2cc(CSc3nnc(C4CCC4)o3)nn2)cc1`, for which the IC90 was 2 µM (active) in [8], 2 µM (active) in test [9] and 62 µM (active) in test [10]. Further, the AC50 in test [11] was > 52 µM (inactive).

As usually defined, the IC50 is the point on the concentration scale where inhibition reaches its midpoint. In the case of `CC(C)OC(=O)c1cc(Br)cnc1N1CCC(NC2CCCCC2)CC1`, the figures for the IC50 in [12] and in [13] were 3 µM (active) and 20 µM (inactive), respectively.

As to `COc1c[nH]c(C(=O)Nc2cccc(C(C)=O)c2)cc1=O`, the IC50 in test [14] and in test [15] was > 100 µM (inactive) throughout.

Turning to `CNCCN(C)Cc1nc2ccc(C#N)cc2c(=O)n1-c1ccccc1F`, the IC50 in [16] was 3.69 µM (active).
